Assays:
Akt kinase = test: Immunoblot of phospho-Akt in MM.1 S cells; type: cell-based; conditions: data not shown; for phospho-Akt: dextrose-free media, ATP depletion, 90 minutes; for phosphorylation of Akt: 4 hours
Method: (§1) 5×10^6 were cells treated with 10 μM 8-NH2-Ado for the indicated times and harvested. Cell pellets were washed with cold phosphate-buffered saline (PBS; 8.1 g NaCl, 1.14 g Na2HPO4, 0.22 g KCl, and 0.25 g/L KH2PO4) and incubated with lysis buffer (50 mM HEPES, 150 mM NaCl, 1.5 mM MgCl2, 1 mM EDTA pH 8.0, 100 mM NaFI, 10 mM Na Pyrophosphate, 500 μM PMSF, 0.5% Triton X-100, 10% glycerol) at 4° C. for one hour. Lysates were centrifuged at 4° C. for 1 minute at 9000×g, and the supernatants were collected and stored at −20° C. Protein concentration was determined by Bio-Rad protein assay (BioRad Laboratories, Hercules, Calif.). Protein, at a concentration of 30 μg, was mixed with sample buffer (125 mM Tris, pH 6.8, 4% SDS, 20% glycerol, 100 mM Dithiothreitol (DTT), and 0.05% bromophenol blue), and fractionated on a pre-cast 8-16% Tris-Glycine gel (Invitrogen/Novex, Carlsbad, Calif.). Proteins were then transferred to a Polyvinylidene Fluoride (PVDF) membrane (Immobilon-P, Millipore, Bedford, Mass.): Following protein transfer, membranes were blocked with 5% non-fat milk in PBS-T (PBS with 0.1% Tween), incubated with the primary antibody overnight at 4° C. and subsequently with horseradish peroxidase linked secondary antibody (Amersham, Arlington Heights, Ill.). Blots were developed using ECL Plus Chemiluminescent Western Blotting Detection reagent (Amersham, Arlington Heights, Ill.) and the signal was visualized with X-ray film (Hyperfilm, Amersham, Arlington Heights, Ill.). For reprobing purposes, blots were stripped using Restore Western Blot Stripping Buffer from Pierce Biotechnology (Rockford, Ill.). Phospho-MKK3/6 (Ser189/207), phospho-p38 (Thr180/Tyr182), phospho-ATF-2 (Thr69/71), phospho-c-Raf (Ser259), phospho-MEK1/2 (Ser217/221), total MEK1/2, phospho-ERK1/2 (Thr202/Tyr204), total ERK1/2, phospho-p90RSK (Ser380), total RSK, phospho-PDK1 (Ser241), total PDKI, phospho-PTEN (Ser380), total PTEN, phospho-Akt (Ser473), total Akt, phospho-GSK-3β (Ser9), total GSK-3β, phospho-FKHRLI (Thr32)/-FKHR (Thr24), phospho-FKHR (Ser256) primary antibodies were obtained from Cell Signaling Technology (Beverly, Mass.). Total MKK3, total MKK6, total p38, total ATF-2, total c-Raf, total FKHR, total FKHRLI, phospho-JNK and total JNK were purchased from Santa Cruz Biotechnology (Santa Cruz, Calif.). Caspase 3, caspase 9, and PARP antibodies were obtained from Pharmingen (San Diego, Calif.) and anti-MKP1 from Upstate (Lake Placid, N.Y.). Anti-caspase 8 mouse serum was a generous gift of Dr. Marcus Peter (University of Chicago).
(§2) MM.1 S cells were exposed to 10 μM 8-NH2-Ado for 0, 0.5, 1, 2, 4 and 6 hours, after which cells were lysed as previously (Example 2). 30 μg of protein was separated by gel electrophoresis, transferred to PVDF membrane, and probed with phosphorylation-specific antibodies to MKK3/6, p38 MAPK, ATF-2, MEK1/2, ERK1/2, p90RSK, JNK1, PDK1, Akt, FKHRL1 and GSK-3β.
(§3) MM. I S cells were treated with 10 μM 8-chloro-adenosine for 0, 0.5, 1, 2, 4 or 6 hours or 10 μM of cytarabine, fludarabine, gemcitabine or 8-amino-adenosine for 4 hours. Cells were lysed as previously described and 30 μg of protein was separated by gel electrophoresis, transferred to PVDF membrane, and probed with phospho-p38 MAPK (Thr180/Tyr182) antibody.
(§4) MM.1 S cells were grown in dextrose-free media and treated with 2 μM Antimycin A, 5 mM 2-DOG, and varying concentrations of dextrose for 90 minutes. Cellular ATP levels were determined using triplicate samples in a luciferase based assay and are expressed here as a percentage of untreated control.

ERK1/2 = test: Immunoblot of phospho-ERK1/2 in MM.1 S cells; type: cell-based; conditions: data not shown; for phospho-ERK1/2: dextrose-free media, ATP depletion, 90 minutes; for phosphorylation of ERK1/2: 4 hours
Method: as §1, §2, §3, §4

p38 MAPK = test: Immunoblot of phospho-p38 MAPK in MM.1 S cells; type: cell-based
Method: as §1
as §2, with “GSK-3β. […] FIGS. 1A, 1B, 1C and 1D provide the results of the blots.” for “GSK-3β.”
as §3
In a parallel approach to test the involvement of cellular phosphatases, we treated MM.1 S cells with varying concentrations of the phosphatase inhibitor okadaic acid in combination with 8-NH2-Ado for 4 hours to assess whether the serine/threonine phosphatases PP2A and PPI are involved.

MM cells [1] = conditions: MM cells, previously shown; cited from earlier work
MM cells [2] = conditions: cited from earlier work

Q: Which results are given for Antimycin A?
A: phospho-Akt (Akt kinase): did not reveal a decrease in phosphorylation; phospho-ERK1/2 (ERK1/2): did not reveal a decrease in phosphorylation

Q: Which results are given for `Nc1ccn([C@@H]2O[C@H](CO)[C@@H](O)C2(F)F)c(=O)n1` [gemcitabine]?
A: phosphorylation of Akt (Akt kinase; 10 μM): do not cause a decrease; phosphorylation of p38 (p38 MAPK; 10 μM, 4 hours): do not cause a decrease; phosphorylation of ERK1/2 (ERK1/2; 10 μM): do not cause a decrease; cytotoxicity (MM cells [1]): cytotoxic

Q: Which “phospho-p38 in the presence of 8-NH2-Ado” value (p38 MAPK; 30 nM okadaic acid in combination with 8-NH2-Ado, 4 hours) does the source give for `C=C1[C@@H](O)[C@@H]2O[C@]3(CC[C@H](/C=C/[C@@H](C)[C@@H]4CC(C)=C[C@@]5(O[C@H](C[C@@](C)(O)C(=O)O)CC[C@H]5O)O4)O3)CC[C@H]2O[C@@H]1[C@@H](O)C[C@H](C)[C@H]1O[C@@]2(CCCCO2)CC[C@H]1C` [okadaic acid] here?
A: partial recovery of phosphorylation

Q: And the phospho-p38 levels (p38 MAPK; 30 nM okadaic acid with 10 μM 8-NH2-Ado, at 6 hours)?
A: still present

Q: What about the “8-NH2-Ado-induced loss of p38 phosphorylation” value (p38 MAPK; 30 nM okadaic acid with 10 μM 8-NH2-Ado, time course) of the same compound?
A: significantly delays

Q: What does the source list for `Nc1ncnc2c1nc(Cl)n2[C@@H]1O[C@H](CO)[C@@H](O)[C@H]1O` [8-chloro-adenosine]?
A: apoptosis (MM cells [2]): induces apoptosis; phosphorylation status of Akt kinase (Akt kinase; 10 μM, time course 0-6 hours): does not reveal any effect; phosphorylation status of p38 (p38 MAPK; 10 μM, time course 0-6 hours): does not reveal any effect; phosphorylation status of ERK1/2 (ERK1/2; 10 μM, time course 0-6 hours): does not reveal any effect

Q: Which “phosphorylation of Akt” value (Akt kinase; 10 μM) does the source give for `Nc1ccn([C@@H]2O[C@H](CO)[C@@H](O)[C@@H]2O)c(=O)n1` [cytarabine] here?
A: do not cause a decrease

Q: What about the “phosphorylation of p38” value (p38 MAPK; 10 μM, 4 hours) of the same compound?
A: do not cause a decrease

Q: What about the “phosphorylation of ERK1/2” value (ERK1/2; 10 μM) of the same compound?
A: do not cause a decrease

Q: And the cytotoxicity (MM cells [1])?
A: cytotoxic

Q: With `Nc1nc(F)nc2c1ncn2[C@@H]1O[C@H](CO)[C@@H](O)[C@@H]1O` [Fludarabine] as the compound, how does the cytotoxicity (MM cells [1]) read?
A: cytotoxic

Q: Which results are given for `O=CC[C@@H](O)[C@H](O)[C@H](O)CO` [2-DOG, 2-deoxy-D-glucose]?
A: phospho-Akt (Akt kinase): did not reveal a decrease in phosphorylation; phospho-ERK1/2 (ERK1/2): did not reveal a decrease in phosphorylation

Source: patent publication US20090082304A1, “Methods of Treating Hematological Malignancies with Nucleoside Analog Drugs” (NORTHWESTERN UNIVERSITY, priority 2004, published 2009)
